# Legend:
# Septoria nodorum = test: Wheat Glume Blotch (WGB) In Vitro; format: cell-based; set-up: key: 0: no inhibition of mycelial growth; 1: slight inhibition of mycelial growth; 2: moderate inhibition of mycelial growth; 3: strong inhibition of mycelial growth; conditions: 4-6 days at 25° C.
# Procedure: A) Pathogen/Inoculum Production--The wheat glume blotch fungus, Septoria nodorum, is cultured on yeast/malt agar at 22° C. and 12 hours fluorescent light. Several sterile loops full of mature pycnidia produced on a 7 day old culture plates are added to 30 mls of 1/4 strength potato dextrose broth. After 15 minutes the suspension is stirred, and adjusted to a concentration of 3×10^5 spores/mi.
# B) Compound Preparation and Test Execution--200 μl of 1/4 strength potato dextrose broth is placed in each well of a 96 well microtiter plate. […] The commercial standard used is flusilazole, at equivalent rates.
# C) Inoculation/Incubation--50 μl of a 3×10^5 spores/ml suspension obtained using the method above is added to each well. The 96-well plate is incubated for 4-6 days at 25° C., 12 hours fluorescent light.
# D) Evaluation--After incubation, each well is visually assessed for growth inhibition on the following 0-3 scale:
# 0=no inhibition of mycelial growth
# 1=slight inhibition of mycelial growth
# 2=moderate inhibition of mycelial growth
# 3=strong inhibition of mycelial growth
# Succinate Dehydrogenase = test: Enzyme Inhibition I-50 (WGB): Succinate Dehydrogenase Assay using Septoria nodorum mitochondria; format: biochemical; conditions: DCPIP reduction, read-out: WGB enzyme I-50
# Procedure: Succinate Dehydrogenase Assay using Septoria nodorum mitochondria--Septorianodorum mycelia are prepared from spores via shake culture for 40-48 hours in 3% malt extract at room temperature. The mycelia are harvested by centrifugation and the pellets obtained are stored in the -80° C. freezer until use.
# Mitochondria are isolated by a method adapted from White (Biochem. Biophys. Res. Commun. 44 (1971) 1212-19). Fifteen to twenty grams of frozen mycelia are resuspended in a 250 mL medium containing 0.25M sucrose, 5 mM tetrasodium ethylenediamine tetraacetic acid (Na4 EDTA), pH 7.0 containing 1.5 g/liter bovine serum albumin (BSA) and placed in a Bead Beater chamber (BioSpec Products, Bartlesville, Okla.). Zirconium oxide beads (0.5 mm) are added to finish filling the chamber. Four 30s beats separated by 2 rain temperature equilibration periods on ice are used to break the mycelia. The homogenate is centrifuged for 20 min at 3000×g and 4° C. to remove debris. The supernatant is recentrifuged at 20,000×g for 20 min at 4° C. The resulting pellet is resuspended in BSA-free sucrose/EDTA medium (40 mL) using a glass tissue homogenizer and teflon pestle and recentrifuged at 27,000×g for 15 min at 4° C. The pellet is resuspended in BSA-free sucrose/EDTA medium (~3 mL) and used for SDH assays.
# The enzyme activity is measured at […] in a solution containing 50 mM potassium phosphate, pH7.2; 1 mM potassium cyanide; 45 μM 2,6-dichlorophenol indophenol (DCPIP) and 17 mM disodium succinate in a final volume of 1 mL with a Perkin-Elmer Lambda 7 ultraviolet-visible spectrophotometer. The test compounds are added as acetone solutions (final concentration of acetone less than or equal to 1%(v/v)). The mitochondrial preparations are used to initiate the reaction. All rates are corrected for succinate-independent dye reduction. Semilog plots of percentage inhibition versus test compound concentration are used to determine inhibition expressed as I50 (μM) which is the concentration required to inhabit the rate of DCPIP reduction by 50%. The commercial fungicide carboxin is used as a standard throughout [I50 (μM)=5.0±2.2; n=52].
# [1] = tested on: Pseudocercosporella herpotrichoides var. tritici; test: Wheat True Eyespot Foliar Protectant Treatment (WES Prot); format: in vivo
# Procedure: A) Pathogen/Inoculum Production--Follows as per Example 4.
# B) Host Propagation--Wheat seedlings, cv. Hart, are grown to the third leaf stage in a commercial soil preparation, "Metro Mix 200", amended with 100 gm/ft^3 slow release "Osmocote 14-14-1438 . A sufficient number of seeds are planted per pot (5 cm in diameter) in order to insure the production of 5 vigorous seedlings per pot. The plants are maintained in a growth chamber set at 21° C., 80% RH with a 12 hour photoperiod. Light intensity is set at 300 me/m^2 /sec.
# C) Test Compound Preparation
# 1) Experimental compounds--Follows as per Example 1.
# 2) Controls and Standards--The commercial fungicide, prochloraz, applied at 20 and 5 ppm, is used as the standard for wheat eyespot control. Control treatments are sprayed only with the formulation solution.
# D) Compound Application--Wheat plants are sprayed at the three leaf stage. The solution is foliarly applied to the basal stem area of the wheat using a Devilbiss Model 152 hand sprayer. The treated wheat is allowed to air dry at room temperature before being returned to a growth chamber. The growth chamber is set at 15° C., 85% RH and a 12 hour photoperiod. Light intensity is maintained at 300 me/m^2 /sec.
# E) Inoculation/Incubation - The treated wheat plants are inoculated 24 hours after chemical treatment. Inoculation is done by spraying a 3×10^5 spores/ml suspension at the basal stem area of each plant. Approximately 1 ml of spore suspension is applied to each plant. Following inoculation, the basal stem area of the plants are covered with a 2-3 cm thick layer of fine vermiculite. The vermiculite is watered lightly and the plants returned to the growth room. The inoculated plants remain in the growth chamber for 4 weeks after which time they are evaluated for disease control.
# F) Evaluation--Treatments are evaluated four weeks after inoculation. Disease assessment is based on the percent girdling of the stem base caused by an eyespot lesion. Five plants are rated per replicate. Phytotoxicity and growth effects are also noted at this time.
# G) Data--All replicate data is recorded as a percent disease value. Treatment means are calculated and percent disease control is determined by the formula: (control mean--treatment mean)*100/control mean. The inoculated control treatment mean is used for this calculation. The percent protection values for the compounds of the present invention are as set out in the Table below.
# [2] = 20 ppm foliar protectant, * = averaged value
# [3] = 100 ppm foliar protectant, * = averaged value
# [4] = 500 ppm foliar protectant, four weeks after inoculation
SMILES,WGB In Vitro growth inhibition 0-3 scale (Septoria nodorum; 0.1 ppm),WGB In Vitro growth inhibition 0-3 scale (Septoria nodorum; 0.5 ppm),WGB In Vitro growth inhibition 0-3 scale (Septoria nodorum; 5.0 ppm),IC50 (Succinate Dehydrogenase) [nM],"WES Prot percent disease control [1, 2] [%]","WES Prot percent disease control [1, 3] [%]","WES Prot percent disease control [1, 4] [%]"
"C[C@@H]1CCC[C@H](c2ccccc2NC(=O)c2cn(C)nc2C(F)F)C1 (relative stereo) [Number 2, 1H-pyrazole-4-carboxamide, 3-(difluoromethyl)-1-methyl-N-[2-(-3-methylcyclohexyl)phenyl]-, cis-]",0,1,2,37,12,82,
"C[C@H]1CCC[C@H](c2ccccc2NC(=O)c2cn(C)nc2C(F)F)C1 (relative stereo) [Number 3, 1H-pyrazole-4-carboxamide, 3-(difluoromethyl)-1-methyl-N-[2-(3-methylcyclohexyl)phenyl]-, trans-]",0,0,0,50,01,95,
Cn1cc(C(=O)Nc2ccccc2[C@@H]2CCC[C@@H](C(F)(F)F)C2)c(C(F)F)n1 (relative stereo) [Number 6],0,0,1,520,,90,100
"CC[C@H]1CC[C@@H](c2ccccc2NC(=O)c2cn(C)nc2C(F)F)CC1 [Number 1, 1H-pyrazole-4-carboxamide, 3-(difluoromethyl)-N-[2-(4-ethylcyclohexyl)phenyl]-1-methyl-, cis-]",0,3,3,15,29,79,100
"Cn1cc(C(=O)Nc2ccccc2[C@H]2CC[C@H](C)CC2)c(C(F)(F)F)n1 [Number 4, 1H-pyrazole-4-carboxamide, 1-methyl-N-[2-(4-methylcyclohexyl)phenyl]-3-(trifluoromethyl)-, trans-]",1,1,2,29,54,98,100
"Cn1cc(C(=O)Nc2ccccc2C2CCC(C)(C)CC2)c(C(F)F)n1 [Number 5, 1H-pyrazole-4-carboxamide, 3-(difluoromethyl)-N-(2-(4,4-dimethylcyclohexyl)phenyl]-1-methyl-]",0,2,2,8,59,99,

# — patent US5498624A, “Selected pyrazolyl derivatives” (Monsanto Company, priority 1995, dated 1996)
